Patent US20260250290A1 (BRISTOL-MYERS SQUIBB COMPANY, priority 2023, published 2026)
Counter-ions that a name gives are not always drawn.

Target: T1, full length SGK1 (Homo sapiens, UniProt O00141)
T1 construct: 125 μM full length SGK1 (Life Technologies Part #PR7358A); purchased Life Technologies PR7358A
T1 sequence (O00141 1-431): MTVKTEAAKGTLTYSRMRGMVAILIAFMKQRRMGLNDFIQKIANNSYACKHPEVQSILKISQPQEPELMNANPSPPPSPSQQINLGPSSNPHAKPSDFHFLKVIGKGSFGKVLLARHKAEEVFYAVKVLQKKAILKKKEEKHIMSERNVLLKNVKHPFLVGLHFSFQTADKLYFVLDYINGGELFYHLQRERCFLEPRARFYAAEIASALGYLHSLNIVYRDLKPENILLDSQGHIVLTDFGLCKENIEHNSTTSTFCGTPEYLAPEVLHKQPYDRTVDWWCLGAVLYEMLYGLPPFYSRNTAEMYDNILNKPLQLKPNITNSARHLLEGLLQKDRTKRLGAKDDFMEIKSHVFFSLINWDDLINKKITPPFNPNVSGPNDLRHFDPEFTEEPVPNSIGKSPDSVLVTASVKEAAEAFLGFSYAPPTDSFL
Test: SGK1 inhibition Assay A (Caliper LabChip electrophoretic separation of fluorescent peptide substrate and phosphorylated product)
Format: biochemical
Details: Assay A; 20 μM ATP, 40 min incubation; read-out: SGK1 IC50

SMILES	IC50
CS(=O)(=O)c1ccc(-c2cc(N3CCC[C@@H](NC(=O)c4ccc(F)cc4)C3)c3c(N)ncnn23)cc1 [Example 25, (R)-N-(1-(4-amino-7-(4-(methylsulfonyl)phenyl)pyrrolo[2,1-f][1,2,4]triazin-5-yl)piperidin-3-yl)-4-fluorobenzamide]	22 nM
CS(=O)(=O)c1ccc(-c2cc(N3CCC[C@@H](NC(=O)c4ccc(F)c(F)c4)C3)c3c(N)ncnn23)cc1 [Example 26, (R)-N-(1-(4-amino-7-(4-(methylsulfonyl)phenyl)pyrrolo [2,1-f][1,2,4]triazin-5-yl)piperidin-3-yl)-3,4-difluorobenzamide]	19 nM
CS(=O)(=O)c1ccc(-c2cc(N3CCC[C@@H](NC(=O)c4ccncc4)C3)c3c(N)ncnn23)cc1 [Example 27, (R)-N-(1-(4-amino-7-(4-(methylsulfonyl)phenyl)pyrrolo[2,1-f][1,2,4]triazin-5-yl)piperidin-3-yl)isonicotinamide]	12 nM
Cn1cc(C(=O)N[C@@H]2CCCN(c3cc(-c4ccc(S(C)(=O)=O)cc4)n4ncnc(N)c34)C2)cn1 [Example 28, (R)-N-(1-(4-amino-7-(4-(methylsulfonyl)phenyl)pyrrolo[2,1-f][1,2,4]triazin-5-yl)piperidin-3-yl)-1-methyl-1H-pyrazole-4-carboxamide]	32 nM
CS(=O)(=O)c1ccc(-c2cc(N3CCC[C@@H](NC(=O)C4CC5(CCC5)C4)C3)c3c(N)ncnn23)cc1 [Example 29, (R)-N-(1-(4-amino-7-(4-(methylsulfonyl)phenyl)pyrrolo [2,1-f][1,2,4]triazin-5-yl)piperidin-3-yl)spiro[3.3]heptane-2-carboxamide]	181 nM
CS(=O)(=O)c1ccc(-c2cc(N3CCC[C@@H](NC(=O)c4ccnnc4)C3)c3c(N)ncnn23)cc1 [Example 30, (R)-N-(1-(4-amino-7-(4-(methylsulfonyl)phenyl)pyrrolo[2,1-f][1,2,4]triazin-5-yl)piperidin-3-yl)pyridazine-4-carboxamide]	65 nM
CS(=O)(=O)c1ccc(-c2cc(N3CCC[C@@H](NC(=O)c4ccncn4)C3)c3c(N)ncnn23)cc1 [Example 31, (R)-N-(1-(4-amino-7-(4-(methylsulfonyl)phenyl)pyrrolo[2,1-f][1,2,4]triazin-5-yl)piperidin-3-yl)pyrimidine-4-carboxamide]	112 nM
CS(=O)(=O)c1ccc(-c2cc(N3CCC[C@@H](NC(=O)c4ccnc(F)c4)C3)c3c(N)ncnn23)cc1 [Example 32, (R)-N-(1-(4-amino-7-(4-(methylsulfonyl)phenyl)pyrrolo[2,1-f][1,2,4]triazin-5-yl)piperidin-3-yl)-2-fluoroisonicotinamide, TFA]	11 nM
Cc1cc(C(=O)N[C@@H]2CCCN(c3cc(-c4ccc(S(C)(=O)=O)cc4)n4ncnc(N)c34)C2)ccn1 [Example 33, (R)-N-(1-(4-amino-7-(4-(methylsulfonyl)phenyl)pyrrolo[2,1-f][1,2,4]triazin-5-yl)piperidin-3-yl)-2-methylisonicotinamide]	9 nM
C#Cc1cccc(C(=O)N[C@@H]2CCCN(c3cc(-c4ccc(S(C)(=O)=O)cc4)n4ncnc(N)c34)C2)c1 [Example 34, (R)-N-(1-(4-amino-7-(4-(methylsulfonyl)phenyl)pyrrolo[2,1-f][1,2,4]triazin-5-yl)piperidin-3-yl)-3-ethynylbenzamide]	24 nM
Cc1cc(C(=O)N[C@@H]2CCCN(c3cc(-c4ccc(S(C)(=O)=O)cc4)n4ncnc(N)c34)C2)cc(C)n1 [Example 35, (R)-N-(1-(4-amino-7-(4-(methylsulfonyl)phenyl)pyrrolo[2,1-f][1,2,4]triazin-5-yl)piperidin-3-yl)-2,6-dimethylisonicotinamide]	21 nM
CS(=O)(=O)c1ccc(-c2cc(N3CCC[C@@H](NC(=O)c4cn5ccccc5n4)C3)c3c(N)ncnn23)cc1 [Example 36]	41 nM
CS(=O)(=O)c1ccc(-c2cc(N3CCC[C@@H](NC(=O)c4cnc[nH]4)C3)c3c(N)ncnn23)cc1 [Example 37, (R)-N-(1-(4-amino-7-(4-(methylsulfonyl)phenyl)pyrrolo[2,1-f][1,2,4]triazin-5-yl)piperidin-3-yl)-1H-imidazole-5-carboxamide, TFA]	136 nM
CS(=O)(=O)c1ccc(-c2cc(N3CCC[C@@H](NC(=O)c4ccn[nH]4)C3)c3c(N)ncnn23)cc1 [Example 38, (R)-N-(1-(4-amino-7-(4-(methylsulfonyl)phenyl)pyrrolo[2,1-f][1,2,4]triazin-5-yl)piperidin-3-yl)-1H-pyrazole-5-carboxamide]	22 nM
CS(=O)(=O)c1ccc(-c2cc(N3CCC[C@@H](NC(=O)c4ccnc(N)c4)C3)c3c(N)ncnn23)cc1 [Example 39, (R)-2-amino-N-(1-(4-amino-7-(4-(methylsulfonyl)phenyl)pyrrolo [2,1-f][1,2,4]triazin-5-yl)piperidin-3-yl)isonicotinamide]	48 nM
Cc1cc(C(=O)N[C@@H]2CCCN(c3cc(-c4ccc(S(C)(=O)=O)cc4)n4ncnc(N)c34)C2)cc(=O)[nH]1 [Example 40, (R)-N-(1-(4-amino-7-(4-(methylsulfonyl)phenyl)pyrrolo[2,1-f][1,2,4]triazin-5-yl)piperidin-3-yl)-6-methyl-2-oxo-1,2-d1Hydropyridine-4-carboxamide, TFA]	115 nM
CS(=O)(=O)c1ccc(-c2cc(N3CCC[C@@H](NC(=O)c4ccns4)C3)c3c(N)ncnn23)cc1 [Example 41, (R)-N-(1-(4-amino-7-(4-(methylsulfonyl)phenyl)pyrrolo[2,1-f][1,2,4]triazin-5-yl)piperidin-3-yl)isothiazole-5-carboxamide, TFA]	5 nM
CS(=O)(=O)c1ccc(-c2cc(N3CCC[C@@H](NC(=O)c4cn5ccncc5n4)C3)c3c(N)ncnn23)cc1 [Example 42, (R)-N-(1-(4-amino-7-(4-(methylsulfonyl)phenyl)pyrrolo 2,1-f][1,2,4]triazin-5-yl)piperidin-3-yl)imidazo[1,2-alpyrazine-2-carboxamide, TFA]	187 nM
CS(=O)(=O)c1ccc(-c2cc(N3CCC[C@@H](NC(=O)c4cc[nH]c(=O)c4)C3)c3c(N)ncnn23)cc1 [Example 43, (R)-N-(1-(4-amino-7-(4-(methylsulfonyl)phenyl)pyrrolo[2,1-f][1,2,4]triazin-5-yl)piperidin-3-yl)-2-oxo-1,2-d1Hydropyridine-4-carboxamide, TFA]	79 nM
CS(=O)(=O)c1ccc(-c2cc(N3CCC[C@@H](NC(=O)c4cn5c(n4)CCCC5)C3)c3c(N)ncnn23)cc1 [Example 44]	735 nM
CS(=O)(=O)c1ccc(-c2cc(N3CCC[C@@H](NC(=O)c4cn5ccsc5n4)C3)c3c(N)ncnn23)cc1 [Example 45, (R)-N-(1-(4-amino-7-(4-(methylsulfonyl)phenyl)pyrrolo [2,1-f][1,2,4]triazin-5-yl)piperidin-3-yl)imidazo[2,1-b]thiazole-6-carboxamide]	28 nM
COc1cc(C(=O)N[C@@H]2CCCN(c3cc(-c4ccc(S(C)(=O)=O)cc4)n4ncnc(N)c34)C2)ccn1 [Example 46, (R)-N-(1-(4-amino-7-(4-(methylsulfonyl)phenyl)pyrrolo[2,1-f][1,2,4]triazin-5-yl)piperidin-3-yl)-2-methoxyisonicotinamide, TFA]	10 nM
CS(=O)(=O)c1ccc(-c2cc(N3CCC[C@@H](NC(=O)c4ccnc(C#N)c4)C3)c3c(N)ncnn23)cc1 [Example 47, (R)-N-(1-(4-amino-7-(4-(methylsulfonyl)phenyl)pyrrolo[2,1-f][1,2,4]triazin-5-yl)piperidin-3-yl)-2-cyanoisonicotinamide, TFA]	44 nM
Cn1cnc(C(=O)N[C@@H]2CCCN(c3cc(-c4ccc(S(C)(=O)=O)cc4)n4ncnc(N)c34)C2)c1 [Example 48, (R)-N-(1-(4-amino-7-(4-(methylsulfonyl)phenyl)pyrrolo[2,1-f][1,2,4]triazin-5-yl)piperidin-3-yl)-1-methyl-1H-imidazole-4-carboxamide]	307 nM
COc1ccccc1C(=O)N[C@@H]1CCCN(c2cc(-c3ccc(S(C)(=O)=O)cc3)n3ncnc(N)c23)C1 [Example 49, (R)-N-(1-(4-amino-7-(4-(methylsulfonyl)phenyl)pyrrolo[2,1-f][1,2,4]triazin-5-yl)piperidin-3-yl)-2-methoxybenzamide]	43 nM
CS(=O)(=O)c1ccc(-c2cc(N3CCC[C@@H](NC(=O)c4cccnc4)C3)c3c(N)ncnn23)cc1 [Example 50, (R)-N-(1-(4-amino-7-(4-(methylsulfonyl)phenyl)pyrrolo [2,1-f][1,2,4]triazin-5-yl)piperidin-3-yl)nicotinamide, TFA]	69 nM
CS(=O)(=O)c1ccc(-c2cc(N3CCC[C@@H](NC(=O)c4cccc(-c5cnco5)c4)C3)c3c(N)ncnn23)cc1 [Example 51, (R)-N-(1-(4-amino-7-(4-(methylsulfonyl)phenyl)pyrrolo[2,1-f][1,2,4]triazin-5-yl)piperidin-3-yl)-3-(oxazol-5-yl)benzamide]	13 nM
Cc1ccccc1C(=O)N[C@@H]1CCCN(c2cc(-c3ccc(S(C)(=O)=O)cc3)n3ncnc(N)c23)C1 [Example 52, (R)-N-(1-(4-amino-7-(4-(methylsulfonyl)phenyl)pyrrolo[2,1-f][1,2,4]triazin-5-yl)piperidin-3-yl)-2-methylbenzamide]	210 nM
CS(=O)(=O)c1ccc(-c2cc(N3CCC[C@@H](NC(=O)c4cccc(F)c4)C3)c3c(N)ncnn23)cc1 [Example 53, (R)-N-(1-(4-amino-7-(4-(methylsulfonyl)phenyl)pyrrolo[2,1-f][1,2,4]triazin-5-yl)piperidin-3-yl)-3-fluorobenzamide]	15 nM
